Results as given in patent USRE49850E1, “N-(pyridin-2-yl)-4-(thiazol-5-yl)pyrimidin-2-amine derivatives as therapeutic compounds” (AUCENTRA THERAPEUTICS PTY LTD, priority 2015, dated 2024).

How the values were obtained:
CDK1B = CDK1B (Homo sapiens, UniProt P06493); experiment: Kinase assay CDK1B (radiometric profiling service); type: biochemical; conditions: for Ki: apparent Ki calculated from Km (ATP) and IC50, read-out: CDK inhibition Ki CDK1B
Summary of the method: (§1)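 CDK7, CDK2 and CDK1 inhibition was measured by an external radiometric profiling service; CDK4/D1 by radiometric or in-house ADP-Glo assay with RB-CTF substrate in […] pH 7.5, 20 mM MgCl2, 0.4 mM DTT, 0.1 mg/ml BSA, for 40 min at 37° C. IC50 came from four-parameter fits; Ki from IC50 and Km (ATP).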

CDK 2A = CDK 2A (Homo sapiens, UniProt P24941); experiment: Kinase assay CDK2A (radiometric profiling service); type: biochemical; conditions: for Ki: apparent Ki calculated from Km (ATP) and IC50, read-out: CDK inhibition Ki CDK 2A
Summary of the method: as §1

CDK4D1 = target: T1, CDK4D1 (Homo sapiens, UniProt P11802); experiment: Kinase assay CDK4/D1 (radiometric or ADP Glo); type: biochemical; conditions: apparent Ki calculated from Km (ATP) and IC50; read-out: CDK inhibition Ki CDK4D1
T1 construct: purchased Eurofins Pharma Discovery or Reaction Biology Corporation (service)
T1 sequence (P11802 whole entry): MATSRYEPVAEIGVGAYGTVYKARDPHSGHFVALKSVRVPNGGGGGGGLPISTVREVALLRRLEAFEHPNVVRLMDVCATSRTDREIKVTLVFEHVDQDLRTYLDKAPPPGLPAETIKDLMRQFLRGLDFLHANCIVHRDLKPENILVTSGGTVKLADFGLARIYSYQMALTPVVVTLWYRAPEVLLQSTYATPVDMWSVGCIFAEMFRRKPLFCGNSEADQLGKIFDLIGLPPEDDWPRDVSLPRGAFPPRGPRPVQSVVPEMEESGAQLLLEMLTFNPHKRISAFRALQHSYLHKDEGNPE
T1 sequence (P24385 whole entry partner): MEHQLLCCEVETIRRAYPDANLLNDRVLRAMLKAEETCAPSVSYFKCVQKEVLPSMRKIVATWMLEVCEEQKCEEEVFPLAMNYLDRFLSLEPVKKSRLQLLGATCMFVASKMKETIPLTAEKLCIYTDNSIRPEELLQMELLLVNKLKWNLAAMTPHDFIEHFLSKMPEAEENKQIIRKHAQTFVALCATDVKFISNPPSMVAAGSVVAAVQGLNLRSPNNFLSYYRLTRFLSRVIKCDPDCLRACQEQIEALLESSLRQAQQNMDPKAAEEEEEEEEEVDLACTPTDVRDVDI
Summary of the method: as §1

CDK6D3 = target: T2, CDK6D3 (Homo sapiens, UniProt Q00534); experiment: Kinase assay CDK6/D3 (radiometric or ADP Glo); type: biochemical; conditions: apparent Ki calculated from Km (ATP) and IC50; read-out: CDK inhibition Ki CDK6D3
T2 construct: purchased Eurofins Pharma Discovery or Reaction Biology Corporation (service)
T2 sequence (Q00534 whole entry): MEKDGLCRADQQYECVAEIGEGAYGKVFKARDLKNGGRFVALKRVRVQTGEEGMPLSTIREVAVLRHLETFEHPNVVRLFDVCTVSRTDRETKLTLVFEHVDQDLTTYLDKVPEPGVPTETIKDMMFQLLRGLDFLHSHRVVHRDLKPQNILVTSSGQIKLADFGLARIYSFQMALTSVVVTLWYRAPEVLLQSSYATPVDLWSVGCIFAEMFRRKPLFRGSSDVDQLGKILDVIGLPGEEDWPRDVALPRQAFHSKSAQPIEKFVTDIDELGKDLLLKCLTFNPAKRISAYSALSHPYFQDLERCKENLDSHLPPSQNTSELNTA
T2 sequence (P30281 whole entry partner): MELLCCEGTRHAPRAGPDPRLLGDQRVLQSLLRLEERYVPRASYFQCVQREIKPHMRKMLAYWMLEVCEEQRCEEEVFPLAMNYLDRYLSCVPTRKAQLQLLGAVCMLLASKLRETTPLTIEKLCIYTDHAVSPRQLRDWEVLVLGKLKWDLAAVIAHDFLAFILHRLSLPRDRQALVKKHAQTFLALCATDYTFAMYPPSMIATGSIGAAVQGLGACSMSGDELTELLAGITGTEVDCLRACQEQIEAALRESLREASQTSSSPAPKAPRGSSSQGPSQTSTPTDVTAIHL
Summary of the method: (§2)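 Radiometric inhibition data for CDKs came from Eurofins or Reaction Biology profiling services; CDK4/D1 was also run in-house by ADP-Glo in […] pH 7.5, 20 mM MgCl2, 0.4 mM DTT, 0.1 mg/ml BSA with RB-CTF substrate, 40 min at 37 °C after ATP start. Ten-point 1:3 dilutions (10 μM–0.5 nM); four-parameter IC50, Ki from IC50 and ATP Km.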

CDK7H = CDK7H (Homo sapiens, UniProt P50613); experiment: Kinase assay CDK7H (radiometric profiling service); type: biochemical; conditions: for Ki: apparent Ki calculated from Km (ATP) and IC50, read-out: CDK inhibition Ki CDK7H
CDK7H, sequence (P50613 whole entry): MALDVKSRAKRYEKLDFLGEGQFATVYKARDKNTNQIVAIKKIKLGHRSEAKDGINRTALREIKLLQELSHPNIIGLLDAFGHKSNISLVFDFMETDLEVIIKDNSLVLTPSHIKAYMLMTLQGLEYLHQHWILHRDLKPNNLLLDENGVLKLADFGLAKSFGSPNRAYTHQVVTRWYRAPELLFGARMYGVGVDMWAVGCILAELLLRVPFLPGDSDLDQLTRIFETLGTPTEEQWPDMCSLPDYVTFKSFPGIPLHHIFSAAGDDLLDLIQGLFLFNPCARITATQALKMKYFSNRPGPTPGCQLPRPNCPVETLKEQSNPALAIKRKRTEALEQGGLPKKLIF
CDK7H, sequence (P51946 whole entry partner): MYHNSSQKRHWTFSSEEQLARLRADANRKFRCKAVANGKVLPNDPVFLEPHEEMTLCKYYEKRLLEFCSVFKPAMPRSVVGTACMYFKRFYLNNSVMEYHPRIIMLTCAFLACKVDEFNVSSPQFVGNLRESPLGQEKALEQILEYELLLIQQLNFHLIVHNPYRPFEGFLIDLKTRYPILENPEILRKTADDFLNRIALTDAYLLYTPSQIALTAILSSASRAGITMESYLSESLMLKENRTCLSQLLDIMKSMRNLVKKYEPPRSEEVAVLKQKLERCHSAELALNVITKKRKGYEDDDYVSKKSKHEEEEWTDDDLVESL
CDK7H, sequence (P51948 whole entry partner): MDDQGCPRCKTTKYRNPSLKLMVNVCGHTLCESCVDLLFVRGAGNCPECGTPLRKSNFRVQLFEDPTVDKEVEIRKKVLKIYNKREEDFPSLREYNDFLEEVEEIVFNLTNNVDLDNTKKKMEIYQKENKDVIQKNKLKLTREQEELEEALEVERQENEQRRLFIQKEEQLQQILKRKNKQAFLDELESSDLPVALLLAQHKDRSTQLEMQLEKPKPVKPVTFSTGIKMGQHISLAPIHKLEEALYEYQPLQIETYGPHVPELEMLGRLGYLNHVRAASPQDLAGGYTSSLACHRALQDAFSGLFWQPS
Summary of the method: as §1

CDK9T1 = target: T3, CDK9T1 (Homo sapiens, UniProt P50750); experiment: Kinase assay CDK9/T1 (radiometric or ADP Glo); type: biochemical; conditions: apparent Ki calculated from Km (ATP) and IC50; read-out: CDK inhibition Ki CDK9T1
T3 construct: purchased Eurofins Pharma Discovery or Reaction Biology Corporation (service)
T3 sequence (P50750 whole entry): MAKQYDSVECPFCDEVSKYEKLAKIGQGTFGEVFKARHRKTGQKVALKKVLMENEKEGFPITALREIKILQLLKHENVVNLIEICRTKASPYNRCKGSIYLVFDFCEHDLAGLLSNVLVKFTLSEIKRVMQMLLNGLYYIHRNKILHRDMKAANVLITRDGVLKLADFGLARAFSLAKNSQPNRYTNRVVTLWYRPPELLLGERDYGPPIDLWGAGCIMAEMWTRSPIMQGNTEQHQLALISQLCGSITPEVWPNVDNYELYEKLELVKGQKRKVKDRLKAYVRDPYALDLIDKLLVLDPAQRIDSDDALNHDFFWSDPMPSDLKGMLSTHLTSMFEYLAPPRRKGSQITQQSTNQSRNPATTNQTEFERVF
T3 sequence (O60563 whole entry partner): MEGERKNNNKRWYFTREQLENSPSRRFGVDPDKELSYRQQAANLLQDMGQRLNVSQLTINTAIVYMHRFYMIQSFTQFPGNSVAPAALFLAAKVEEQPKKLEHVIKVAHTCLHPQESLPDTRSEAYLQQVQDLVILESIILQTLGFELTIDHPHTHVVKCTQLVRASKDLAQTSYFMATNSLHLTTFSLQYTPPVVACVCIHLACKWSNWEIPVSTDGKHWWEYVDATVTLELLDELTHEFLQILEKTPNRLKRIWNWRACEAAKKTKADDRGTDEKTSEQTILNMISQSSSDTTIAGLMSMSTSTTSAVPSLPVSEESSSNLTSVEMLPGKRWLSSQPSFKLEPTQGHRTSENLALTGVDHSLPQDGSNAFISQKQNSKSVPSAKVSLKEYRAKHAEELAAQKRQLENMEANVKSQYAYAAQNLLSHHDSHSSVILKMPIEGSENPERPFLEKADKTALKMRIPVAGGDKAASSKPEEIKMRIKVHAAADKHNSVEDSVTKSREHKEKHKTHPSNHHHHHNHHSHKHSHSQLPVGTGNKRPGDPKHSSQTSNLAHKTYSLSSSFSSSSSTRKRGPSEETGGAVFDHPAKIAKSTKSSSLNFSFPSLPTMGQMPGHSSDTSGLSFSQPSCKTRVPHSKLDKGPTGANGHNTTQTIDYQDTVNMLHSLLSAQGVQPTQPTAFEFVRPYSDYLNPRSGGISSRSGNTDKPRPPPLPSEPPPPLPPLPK
Summary of the method: as §2

MV4-11 = experiment: Cell viability assay (resazurin, leukemia cell line) MV4-11; type: cell-based, human; conditions: Homo sapiens, MV4-11, 72 h; read-out: Anti-proliferative activity GI50 MV4-11
From the text: (§3) Compounds from Example 1 were subjected to a standard MTT (3-(4,5-dimethylthiazol-2-yl)-2,5-diphenyltetrazolium bromide) and resazurin assays on solid tumour cell lines and leukemia cell lines, respectively, as previously reported (Wang S et al., J Med Chem 47:1662-1675, 2004 and Diab S. et al. CheMedChem 9:962-972, 2014).

MDA-MB-453 = experiment: Cell viability assay (MTT, solid tumour cell line) MDA-MB-453; type: cell-based, human; conditions: Homo sapiens, MDA-MB-453, 72 h; read-out: Anti-proliferative activity GI50 MDA-MB-453
From the text: as §3

KG-1 = experiment: Cell viability assay, leukemia KG-1; type: cell-based; conditions: Homo sapiens, 72 h, read-out: Antiproliferative activity GI50 KG-1
From the text: as §3

MOLM-13 = experiment: Cell viability assay, leukemia MOLM-13; type: cell-based; conditions: Homo sapiens, 72 h, read-out: Antiproliferative activity GI50 MOLM-13
From the text: as §3

Pharmacokinetics in rat = type: in vivo, Wistar Rat; conditions: po; for bioavailability: vs IV dosing, read-out: Oral bioavailability (F %)
Protocol: (§4) For pharmacokinetic measurements, healthy male adult Balb/C mice (weighing 20-25 g) or Wistar Rat (weighing 250-350 g) were split into weight matched groups of 3 per group. […] Blood samples were collected from animals by jugular vein cannula (rats) or under anaesthesia by cardiac puncture (mice) at time zero and at intervals up to 24 h. Harvested blood was centrifuged at 7000×G for 2 minutes, and the plasma aspirated and frozen at −20° C. until analysis. Quantitative analysis of compound in plasma was carried out using LC-MS/MS methods. Pharmacokinetic data derived using Phoenix WinNonlin 6.4® non-compartmental analysis. Oral bioavailability (% F) was calculated by taking the ratio of dose-normalised AUC values from oral versus parenteral (IV) dosing.

A2780 = experiment: Cell viability assay, ovarian A2780; type: cell-based; conditions: Homo sapiens, A2780; 72 h, Ovarian; read-out: Antiproliferative activity GI50 A2780
From the text: as §3

D458 = experiment: Cell viability assay, medulloblastoma D458; type: cell-based; conditions: Homo sapiens; 72 h, Medulloblastoma; read-out: Antiproliferative activity GI50 D458
From the text: as §3

D283 = experiment: Cell viability assay, medulloblastoma D283; type: cell-based; conditions: Homo sapiens, D283; 72 h, Medulloblastoma; read-out: Antiproliferative activity GI50 D283
From the text: as §3

MV4-11 cells = experiment: Cell cycle analysis (PI staining, flow cytometry); type: cell-based, human; conditions: MV4-11 cells treated for 24 h, FIG. 1
Protocol: Cell cycle analysis and apoptosis studies were performed as described previously (Diab S. et al. CheMedChem 9:962-972, 2014; Teo T., et al. Cancer Letters, 357(2):612-623, 2015). Briefly, human acute myeloid leukaemia MV4-11 cells (1×10^5) were seeded and incubated overnight at 37° C. and 5% CO2. Cells were centrifuged at 300×g for 5 min upon treatment with inhibitor. Cell pellets were collected and fixed with 70% ethanol on ice for 15 min, followed by centrifugation at 300×g for 5 min. The collected pellets were incubated with staining solution (50 μg/mL PI, 0.1 mg/mL ribonuclease A, 0.05% Triton X-100) at 37° C. for an hour and analysed with Gallios flow cytometer. 1×10^5 of the remaining cells were then used in an apoptotic assay with Annexin V-FITC Apoptosis Detection Kit. The samples were analysed by FACS within one hour of staining. Data were analysed using Kaluza v1.2.
In an example shown in FIG. 1, MV4-11 cells were treated with compound 60 for 24 hat the concentrations shown.

Pharmacokinetics in mice = type: in vivo, Balb/C mice; conditions: po, 10 mg/kg in mice
Protocol: as §4

[1] = male, Wistar, plasma, 20 mg/kg in rat
[2] = male, Wistar, plasma, 40 mg/kg in rat

CDK1B, sequence (P06493 whole entry): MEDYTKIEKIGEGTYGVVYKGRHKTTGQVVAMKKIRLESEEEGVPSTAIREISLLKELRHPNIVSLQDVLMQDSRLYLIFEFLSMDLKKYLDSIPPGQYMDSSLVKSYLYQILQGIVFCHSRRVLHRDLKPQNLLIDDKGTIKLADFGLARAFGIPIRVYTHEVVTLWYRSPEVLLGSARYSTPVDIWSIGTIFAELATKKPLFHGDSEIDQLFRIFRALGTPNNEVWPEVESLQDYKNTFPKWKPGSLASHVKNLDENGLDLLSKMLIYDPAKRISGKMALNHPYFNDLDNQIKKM
CDK1B, sequence (P14635 whole entry partner): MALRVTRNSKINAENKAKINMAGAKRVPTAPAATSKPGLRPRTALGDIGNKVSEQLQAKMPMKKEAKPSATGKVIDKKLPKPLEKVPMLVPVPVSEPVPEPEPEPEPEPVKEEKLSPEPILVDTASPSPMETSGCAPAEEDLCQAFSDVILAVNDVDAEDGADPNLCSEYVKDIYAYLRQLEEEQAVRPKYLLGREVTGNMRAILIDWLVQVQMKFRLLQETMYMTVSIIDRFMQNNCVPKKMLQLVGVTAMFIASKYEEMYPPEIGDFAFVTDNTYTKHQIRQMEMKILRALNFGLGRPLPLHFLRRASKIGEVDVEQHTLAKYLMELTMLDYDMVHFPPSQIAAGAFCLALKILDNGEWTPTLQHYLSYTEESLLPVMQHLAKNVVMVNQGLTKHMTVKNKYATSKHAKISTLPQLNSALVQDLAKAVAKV

SMILES	Ki (CDK1B)	Ki (CDK 2A)	Ki (CDK4D1)	Ki (CDK6D3)	Ki (CDK7H)	Ki (CDK9T1)	GI50 (MV4-11)	GI50 (MDA-MB-453)	GI50 (KG-1)	GI50 (MOLM-13)	also measured
CCc1nc(C)c(-c2ccnc(Nc3ccc(N4CCN(CC)CC4)cn3)n2)s1 [Compound 9, 4-(2-ethyl-4-methylthiazol-5-yl)-N-(5-(4-ethylpiperazin-1-yl)pyridin-2-yl)pyrimidin-2-amine]	> 5000 nM	1800 nM	10 nM	1670 nM	> 5000 nM	> 5000 nM	591 ± 83 nM	3320 ± 576 nM	47 ± 15 nM	293 ± 28 nM	–
CNc1nc(C)c(-c2nc(Nc3ccc(N4CCN(C(C)=O)CC4)cn3)ncc2C#N)s1 [Compound 34, 2-((5-(4-acetylpiperazin-1-yl)pyridin-2-yl)amino)-4-(4-methyl-2-(methylamino)thiazol-5-yl)pyrimidine-5-carbonitrile]	> 5000 nM	4470 nM	–	–	> 5000 nM	> 5000 nM	174 ± 22 nM	813 ± 22 nM	112 ± 45 nM	408 ± 25 nM	AUC (Pharmacokinetics in rat; [1]): 10.2 µM·h; Cmax (Pharmacokinetics in rat; [1]): 600 nM; half-life (Pharmacokinetics in rat; [1]): 4.6 h; bioavailability (Pharmacokinetics in rat; [1]): 39%
Cc1nc(N(C)C)sc1-c1nc(Nc2ccc(N3CCN(C)CC3)cn2)ncc1F [Compound 46, 5-(5-fluoro-2-((5-(4-methylpiperazin-1-yl)pyridin-2-yl)amino)pyrimidin-4-yl)-N,N,4-trimethylthiazol-2-amine]	> 5000 nM	1390 nM	2 nM	55 nM	> 5000 nM	4360 nM	73 ± 10 nM	638 ± 42 nM	5 ± 4 nM	98 ± 12 nM	–
CNc1nc(C)c(-c2nc(Nc3ccc(N4CCC(N(C)C)CC4)cn3)ncc2F)s1 [Compound 47, 5-(2-((5-(4-(dimethylamino)piperidin-1-yl)pyridin-2-yl)amino)-5-fluoropyrimidin-4-yl)-N,4-dimethylthiazol-2-amine]	> 5000 nM	3340 nM	2 nM	279 nM	> 5000 nM	> 5000 nM	107 ± 22 nM	349 ± 36 nM	6 ± 1 nM	76 ± 8 nM	–
Cc1nc(NC2CCCC2)sc1-c1ccnc(Nc2ccc(N3CCNCC3)cn2)n1 [Compound 60, N-cyclopentyl-4-methyl-5-(2-((5-(piperazin-1-yl)pyridin-2-yl)amino)pyrimidin-4-yl)thiazol-2-amine]	> 5000 nM	> 5000 nM	–	–	–	–	23 ± 24 nM	70 ± 13 nM	–	–	GI50 (A2780): 81 ± 1 nM; GI50 (D458): 321 ± 68 nM; GI50 (D283): 124 ± 20 nM; Cell cycle effect (MV4-11 cells): arrested cells in the G1 phase of the cell-cycle in a dose-dependent manner; AUC (Pharmacokinetics in rat; [2]): 6.6 µM·h; Cmax (Pharmacokinetics in rat; [2]): 500 nM; half-life (Pharmacokinetics in rat; [2]): 16.4 h; bioavailability (Pharmacokinetics in rat; [2]): 51%
Cc1nc(NC2CCCC2)sc1-c1ccnc(Nc2ccc(N3CCOCC3)cn2)n1 [Compound 71, N-cyclopentyl-4-methyl-5-(2-((5-morpholinopyridin-2-yl)amino)pyrimidin-4-yl)thiazol-2-amine]	> 5000 nM	2940 nM	5 nM	29 nM	> 5000 nM	> 5000 nM	335 ± 184 nM	3680 ± 285 nM	–	–	AUC (Pharmacokinetics in rat; [1]): 15.9 µM·h; bioavailability (Pharmacokinetics in rat; [1]): 27%; Cmax (Pharmacokinetics in rat; 20 mg/kg in rat): 1400 nM; t1/2 (Pharmacokinetics in rat; 20 mg/kg in rat): 2.8 h; AUC (Pharmacokinetics in mice; male, Balb/C, mouse, plasma): 5.9 µM·h; half-life (Pharmacokinetics in mice; male, Balb/C, mouse, plasma): 5 h; bioavailability (Pharmacokinetics in mice; male, Balb/C, mouse, plasma, vs IV dosing, read-out: Oral bioavailability (F %)): 100%; Cmax (Pharmacokinetics in mice): 1600 nM
Cc1nc(N(C)C2CCCC2)sc1-c1ccnc(Nc2ccc(N3CCN(C)CC3)cn2)n1 [Compound 86, N-cyclopentyl-N,4-dimethyl-5-(2-((5-(4-methylpiperazin-1-yl)pyridin-2-yl)amino)pyrimidin-4-yl)thiazol-2-amine]	> 5000 nM	476 nM	2 nM	10 nM	> 5000 nM	1800 nM	20 ± 15 nM	3360 ± 286 nM	–	–	GI50 (A2780): 72 ± 20 nM; GI50 (D458): 617 ± 112 nM; GI50 (D283): 358 ± 100 nM
Cc1[nH]c(=O)sc1-c1ccnc(Nc2ccc(N3CCN(C)CC3)cn2)n1 [Compound 92, 4-methyl-5-(2-((5-(4-methylpiperazin-1-yl)pyridin-2-yl)amino)pyrimidin-4-yl)thiazol-2(3H)-one]	–	–	27 nM	155 nM	–	950 nM	752 ± 33 nM	3330 ± 864 nM	–	–	remaining activity at 10 µM (CDK1B; compound at 10 μM, read-out: % remaining enzymatic activity at 10 μM CDK1B): 51%; remaining activity at 10 µM (CDK 2A; compound at 10 μM, read-out: % remaining enzymatic activity at 10 μM CDK 2A): 61%; remaining activity at 10 µM (CDK7H; compound at 10 μM, read-out: % remaining enzymatic activity at 10 μM CDK7H): 24%; melting point: 228 to 230 °C
